Measurements: article PMC13492380, “Dissecting Structural and Functional Determinants of Microtubules Stabilization through Guided Chemical Modulation” (Journal of Medicinal Chemistry, 2026)
Where two headings read alike, the source gives them in different places.

Tests used:
A549 cells = assay: MTT cytotoxicity assay, A549; type: cell-based; settings: Homo sapiens, read-out: Cytotoxicity IC50 A549
Experimental: (§1) Antiproliferative assays were performed as described.

[1] = tested on: Kb-3.1 cells (HeLa subclone); assay: MTT cytotoxicity assay, Kb-3.1; type: cell-based; settings: Homo sapiens, read-out: Cytotoxicity IC50 Kb-3.1
Experimental: as §1

tubulin = assay: Tubulin polymerization time course (absorbance 350 nm); type: biochemical, calf; settings: 25 μM tubulin in PEDTA buffer, 35 μM compound, 37 °C
Experimental: Purified calf brain tubulin and chemicals were obtained as previously described. Tau-mCherry was expressed and purified as described previously. Human Kif5B-EGFP (amino acids 1-905), containing a C terminal fluorescent-tag followed by a 3C protease cleavage site and a 6 × His-tag was expressed and purified as in with some modifications. Prior to purification, cells were resuspended in 1:1 ratio of lysis buffer (30 mM HEPES pH 7.5, 300 mM NaCl, 0.5 mM ATP, 5% glycerol, 20 mM imidazole, […]) supplemented with 1× Protease inhibitor cocktail and benzonase to the final concentration of 25 units/ml. Cells were homogenized by repeated pipetting. Cells were lysed by spinning for 45 min at 40,000 rpm in 45 Ti fixed-angle rotor (Beckman Coulter) at 4 °C. The supernatant was incubated with pre-equilibrated HisPUR NiNTA agarose resin (Thermo Fisher Scientific) for 1 h in a tightly closed gravity-flow column (Thermo Fisher Scientific) at 4 °C by slowly rotating. Subsequently, the resin was washed once lysis buffer and then with buffer B (30 mM HEPES pH 7.5, 300 mM NaCl, 0.5 mM ATP, 5% glycerol, 30 mM imidazole, […]). The protein was eluted from the resin after an overnight cleavage of the 6 × His-tag with 3C HRV protease in lysis buffer at 4 °C. The eluted protein was further purified via size exclusion chromatography on Superdex 200 10/300 GL column equilibrated in exclusion buffer (30 mM HEPES pH 7.5, 300 mM NaCl, 0.5 mM ATP, 5% glycerol, […]). Peak fractions were analyzed via SDS-PAGE, pooled and the protein was concentrated with Amicon Ultra-15 Centrifugal Filter tubes (Millipore). Purified proteins were aliquoted, snap-frozen in liquid N2, and stored at −80 °C.
Tubulin polymerization assays were performed in PEDTA (10 mM NaPi, 1 mM EDTA, 0.1 mM GTP pH 7.0) or GAB (10 mM NaPi, 3.4 M glycerol, 1 mM EGTA, 0.1 mM GTP pH 6.7) buffers supplemented with 0.9 mM GTP and 4 mM MgCl2.

[2] = tested on: Dynein Light Chain LC8 (retrograde transport) in SH-SY5Y cells; assay: Cy5-DBP dynein binding probe tracking, live-cell imaging; type: cell-based, human; settings: for Cy5-DBP Distance, normalized to control / Cy5-DBP Speed, normalized to control: 1 μM PTX or 2.5 μM FTX2, 1a or 1b, mean ± SEM
Source text: (§2) Building on our ability to chemically modulate MT structure, we next explored how these changes influence signaling patterns involved in MAPs interactions. Given that MTs are key players in intracellular transport – guiding organelles, vesicles and chromosomes via molecular motors like dyneins and kinesins – we assessed the impact of our compounds on transport dynamics in neuroblastoma SH-SY5Y cells. We combined live-cell imaging with previously developed tracking peptides (Figure A): Cy5-DBP, which encompasses the sequence that specifically recognizes Dynein Light Chain LC8 (retrograde transport), and Cy5-KBP, with a sequence that binds to the tetratricopeptide repeat of the kinesin-1 light chain KLC1 (anterograde transport). […] However, this was for a short incubation period (1 to 2.5 h, including imaging time) to avoid mitotic arrest or compromise cell viability. We then assessed particle behavior by measuring mean track displacement and mean track velocity.
(§3) Cy5-KBP and Cy5-DBP tracking peptides were synthesized at CIB-Margarita Salas (CSIC), following a published protocol. Briefly, the peptide chains were assembled via solid phase peptide synthesis (SPPS) using fluorenylmethyloxycarbonyl (Fmoc) as N-terminal protecting group and, subsequently labeled with the organic dye cyanine 5 (Cy5) via a maleimide–thiol reaction between the N-terminal cysteine residues of the peptides and the commercially available Cy5-maleimide. The final peptides were purified via reverse phase HPLC, dissolved in DMSO to a final 2.5 mM concentration and stored in small aliquots at −20 °C. SH-SY5Y cells were seeded into μ-Slide 8-wells ibiTreat plates (ibidi, flat polymer coverslip-bottom, tissue culture treated) at a concentration of 35,000 cells/well and incubated for 48 h at 37 °C and 5% CO2. […] After this time, the culture medium was replaced by the drug working solution containing either Cy5-KBP or Cy5-DBP, and the plate was incubated for an additional 15 min at 37 °C and 5% CO2. Then, the culture medium was replaced with drug working solution without labeled peptide and the cells were imaged using a confocal laser scanning microscope Leica TCS SP8 with a 63x oil immersion objective that included a humidified incubation chamber, a CO2 controller and a heating unit. Cy5 dye was excited at 635 nm and the fluorescence emission was collected at 645–690 nm. Images were recorded every 1.793 s for 3 min as 2-layer-z-stacks. For each condition, two to three different fields were imaged in two separate experiments.
(§4) Single-peptide trajectories were tracked with the TrackMate plugin from the Fiji package software (https://imagej.net/TrackMate). Particles with an estimated blob diameter of 1–1.5 μm were detected using the Laplacian of Gaussian (LoG) detector and linked with the Linear motion LAP tracker. Only spots that were at a maximum distance of 2 μm were linked. Trajectories with less than 6 spots were discarded since they were probably artifactual, and track mean displacement and track mean velocity were calculated and normalized to control cells. Data were further analyzed with MATLAB to perform a Mean Square Displacement (MSD) analysis to determine the mode of displacement of the peptides followed over time. Briefly, for each trajectory the MSD function was calculated and its log–log representation fitted with a linear function (log(MSD(τ)) = […] x log(τ) + C). MSD curves with an R^2 coefficient <0.8 were removed. The slope (α) of each MSD curve determines the motion type of each particle and particles were classified into: constrained particles (CM) α < 1, Brownian particles (BM) α = 1, and transported particles (TM) α > 1. Two independent experiments were performed using three biological replicates (N = 6). Statistical analyses of normalized track mean displacement and track mean velocity were performed using an unpaired t test with Welch’s correction in GraphPad Prism 8 software. […]

[3] = tested on: Kb-V1 cells (overexpressing PgP); assay: MTT cytotoxicity assay, Kb-V1; settings: for IC50: Homo sapiens, KB-V1, 48 h, read-out: Cytotoxicity IC50 Kb-V1; for R/S (resistant to sensitive ratio): IC50 Kb-V1 / IC50 Kb-3.1
Experimental: (§5) Antiproliferative assays were performed as described. […] Then, increasing concentrations of drugs were added and incubated for 48 h prior to the reaction with the MTT solution. IC50 values were obtained by fitting the experimental data (absorbance at 570/690 nm) to a four-parameter logistic curve using SigmaPlot 14.5 software package (Systat Software, Inc., San Jose, CA, USA) and IC50 values were expressed as mean ± SEM from three independent experiments, each performed in duplicate.

[4] = tested on: HeLaβIII cells (overexpressing βIII tubulin isotype); assay: MTT cytotoxicity assay, HeLaβIII; settings: for IC50: Homo sapiens, 48 h, read-out: Cytotoxicity IC50 HeLaβIII; for R/S (resistant to sensitive ratio): IC50 HeLaβIII / IC50 HeLa
Experimental: as §5

[5] = tested on: kinesin-1 light chain KLC1 (anterograde transport) in SH-SY5Y cells; assay: Cy5-KBP kinesin binding probe tracking, live-cell imaging; type: cell-based, human; settings: for Cy5-KBP Distance, normalized to control / Cy5-KBP Speed, normalized to control: 1 μM PTX or 2.5 μM FTX2, 1a or 1b, mean ± SEM
Source text: as §2, §3, §4

Row | Structure (SMILES) | IC50 (A549 cells; A549, MTT, 48 h, mean ± SEM) [nM] | IC50 ([1]; KB 3-1, MTT, 48 h, mean ± SEM) [nM] | Polymerization v max (tubulin) | reduction of Cy5-DBP particle displacement vs nontreated control cells ([2]; 1 μM PTX) | IC50 [3] [nM] | IC50 [4] [nM] | Cy5-DBP Distance, normalized to control [2] | Cy5-DBP Speed, normalized to control [2] | Cy5-KBP Distance, normalized to control [5] | Cy5-KBP Speed, normalized to control [5] | reduction in kinesin binding probe velocity ([5]; 2.5 μM) [%] | R/S (resistant to sensitive ratio) [3] | R/S (resistant to sensitive ratio) [4] | IC50 (A549 cells; A549, 48 h) [nM] | IC50 ([1]; KB 3-1, 48 h) [nM] | effect on Cy5-KBP particle tracking ([5]; 2.5 μM)
1 | CC(=O)O[C@H]1C(=O)[C@@]2(C)[C@H]([C@H](OC(=O)c3ccccc3)[C@]3(O)C[C@H](OC(=O)[C@H](O)[C@@H](NC(=O)c4ccccc4)c4ccccc4)C(C)=C1C3(C)C)[C@]1(OC(C)=O)CO[C@@H]1C[C@@H]2O [PTX, Paclitaxel] | 3.1 ± 0.7 | 2.4 ± 0.2 | 1.25 × 10^–2 min^–1 | approximately 20% | 2700 ± 600 | 28.7 ± 0.7 | – | – | – | – | – | – | – | – | – | –
2 | CC(=O)O[C@H]1C(=O)[C@]2(C)[C@@H](OC(=O)[C@H](C)NC(=O)c3ccc(-c4c5cc(F)c(=O)cc-5oc5cc(O)c(F)cc45)c(C(=O)O)c3)C[C@H]3OC[C@@]3(OC(C)=O)[C@H]2[C@H](OC(=O)c2ccccc2)[C@]2(O)C[C@H](OC(=O)[C@H](O)[C@@H](NC(=O)c3ccccc3)c3ccccc3)C(C)=C1C2(C)C [FTX2, Flutax2] | – | – | 1.42 × 10^–3 min^–1 | – | – | – | 1.06 ± 0.02 | 1.21 ± 0.02 | 0.910 ± 0.003 ratio to control | 0.85 ± 0.01 ratio to control | ~14 | – | – | – | – | –
3 | COc1ccc2c(c1)CC(NC(=O)CCCCCCCC(=O)OC1CC3OCC3(OC(C)=O)C3C(OC(=O)c4ccccc4)C4(O)CC(OC(=O)C(O)C(NC(=O)c5ccccc5)c5ccccc5)C(C)=C(C(OC(C)=O)C(=O)C13C)C4(C)C)CC2 [1b, 7-O-((S)-9″-(7‴-Methoxy-1‴,2‴,3‴,4‴-tetrahydronaphthalen-2‴-yl)amino) −9″-oxononanoyl) Paclitaxel] | 220 ± 20 | 150 ± 20 | 1.44 × 10^–4 min^–1 | – | 19000 | 720 ± 80 | 0.92 ± 0.01 | 1.07 ± 0.01 | 0.85 ± 0.01 ratio to control | 0.87 ± 0.01 ratio to control | ~16 | 127 | 7 | – | – | –
4 | CC(=O)OC1C(=O)C2(C)C(OC(=O)CCCCC(=O)OC3CCc4ccccc43)CC3OCC3(OC(C)=O)C2C(OC(=O)c2ccccc2)C2(O)CC(OC(=O)C(O)C(NC(=O)c3ccccc3)c3ccccc3)C(C)=C1C2(C)C (stereo not drawn) [1a, 7-O-(6″-O-(2‴,3‴-Dihydroinden-1‴-yl)hexanedioyl) Paclitaxel] | – | – | 1.19 × 10^–3 min^–1 | – | > 40000 | 510 ± 80 | 0.92 ± 0.01 | 0.98 ± 0.02 | 0.92 ± 0.01 ratio to control | 0.95 ± 0.01 ratio to control | – | >142 | 3 | 510 ± 40 | 280 ± 30 | did not affect particle tracking
